Data on 13 compounds can be found in the C3SDB collision cross section collection.

The conditions of this series: instrument: DT, stepped-field.

In the case of `CCCCC/C=C\C/C=C\CCCCCCCCCCCC(=O)O[C@H](COC(=O)CCCCCCCCC/C=C\CCCCCCCC)COP(=O)(O)OC[C@H](N)C(=O)O` [PS(42:03)], the “collision cross section (N2)” value ([M+H]+) is on record as 298.03 Å².

As for `CCCCC/C=C\C/C=C\C/C=C\CCCCCCC(=O)OC[C@H](COP(=O)(O)OC[C@H](N)C(=O)O)OC(=O)CCCCCCCCC/C=C\CCCCCCCCCC` [PS(42:04)], the “collision cross section (N2)” value was 304.19 Å² ([M+2Na-H]+), 296.39 Å² ([M+H]+) and 298.86 Å² ([M+Na]+).

Consider `CCCCC/C=C\C/C=C\C/C=C\CCCCCCC(=O)OC[C@H](COP(=O)(O)OC[C@H](N)C(=O)O)OC(=O)CCCCCCCCCCC/C=C\C/C=C\CCCCC` [PS(42:05)], for which the “collision cross section (N2)” value turned out to be 300.15 Å² ([M+2Na-H]+), 295.24 Å² ([M+H]+) and 297.67 Å² ([M+Na]+).

Consider `CC/C=C\C/C=C\C/C=C\C/C=C\C/C=C\C/C=C\CCC(=O)OC[C@H](COP(=O)(O)OC[C@H](N)C(=O)O)OC(=O)CCCCCCCCCCC/C=C\C/C=C\CCCCC` [PS(44:08)], for which the “collision cross section (N2)” value ([M+2Na-H]+) worked out at 301.25 Å².

With `CCCC/C=C\C/C=C\CCCCCCCC(=O)O[C@H](COCCCCCCCCCCCCCCCCCC)COP(=O)(O)OC[C@H](N)C(=O)O` [PS(o35:02)], the “collision cross section (N2)” value ([M+2Na-H]+) turned out to be 282.4 Å².

Turning to `CCCCCCCCCCCCC=CC[C@@H](O)[C@H](COP(=O)([O-])OCC[N+](C)(C)C)NC(=O)CC=CCCCCCCCCCCCCCC` [SM(36:02)], the “collision cross section (N2)” value by setting is: ([M+HCOO]-) 289.73 Å²; ([M+H]+) 284.15 Å²; ([M+Na]+) 280.32 Å².

For the compound `CCCCCCCCCCCCCCCCCCCCCC(=O)N[C@@H](COP(=O)([O-])OCC[N+](C)(C)C)[C@H](O)CCCCCCCCCCCCCCC` [SM(40:00)], the “collision cross section (N2)” value amounted to 301.5 Å² ([M+Cl]-), 303.38 Å² ([M+HCOO]-) and 299.61 Å² ([M+H]+).

Take `CCCCCCCCCCCCC=CC[C@@H](O)[C@H](COP(=O)([O-])OCC[N+](C)(C)C)NC(=O)CCCCCCCCCCCCCCCCCCCCC` [SM(40:01)]: the “collision cross section (N2)” value runs as follows: ([M+Cl]-) 300.79 Å²; ([M+HCOO]-) 301.44 Å²; ([M+H]+) 297.88 Å²; ([M+Na]+) 296 Å².

On to `CCCCCCCCCCCCCCCCCCCCCCC(=O)N[C@@H](COP(=O)([O-])OCC[N+](C)(C)C)[C@H](O)CCCCCCCCCCCCCCC` [SM(41:00)], for which the “collision cross section (N2)” value ([M+2Na-H]+) is 301.12 Å² and the “collision cross section (N2)” value ([M+H]+) worked out at 302.29 Å².

For the compound `CCCCCCCCCCCCC=CC[C@@H](O)[C@H](COP(=O)([O-])OCC[N+](C)(C)C)NC(=O)CC=CCCCCCCCCCCCCCCCCCCC` [SM(41:02)], the “collision cross section (N2)” value ([M+HCOO]-) is 303.33 Å², the “collision cross section (N2)” value ([M+H]+) amounted to 298.91 Å² and the “collision cross section (N2)” value ([M+Na]+) amounted to 296.38 Å².

For the compound `CCCCCCCCCCCCC=CC[C@@H](O)[C@H](COP(=O)([O-])OCC[N+](C)(C)C)NC(=O)CC=CCC=CCCCCCCCCCCCCCCCCC` [SM(42:03)], the “collision cross section (N2)” value is on record as 304.85 Å² ([M+HCOO]-), 299.58 Å² ([M+H]+) and 297.59 Å² ([M+Na]+).

For `CCCCCCCCCCCCC=CC[C@@H](O)[C@H](COP(=O)([O-])OCC[N+](C)(C)C)NC(=O)CCCCCCCCCCCCCCCCCCCCCCCC` [SM(43:01)], the “collision cross section (N2)” value reads like this: ([M+H]+) 306.91 Å²; ([M+Na]+) 304.16 Å².

`CCCCCCCCCCCCC=CC[C@@H](O)[C@H](COP(=O)([O-])OCC[N+](C)(C)C)NC(=O)CC=CCCCCCCCCCCCCCCCCCCCCC` [SM(43:02)]: the “collision cross section (N2)” value ([M+H]+) turned out to be 304.47 Å² and the “collision cross section (N2)” value ([M+Na]+) stood at 303.6 Å².
